Laboratory results taken from patent US20050014690A1, “Styryl acrylonitrile compounds and their use to promote myelopoiesis” (priority 2001, published 2005).
Entries after “also recorded” stand apart in the source; their conditions may differ.

Tests used:
normal bone marrow cells [1] = test: CFU-GEMM colony assay, normal bone marrow, compound present for 14 days; assay type: cell-based, human; details: for toxicity to normal bone marrow cells: until concentrations of 20 μM or greater; for number of CFU-GM or CFU-C colonies: in vitro assays of human bone marrow cell growth, continual exposure for 14 days, about 1-20 μM
Protocol: Treatment of normal bone marrow in culture with CR4. The CFU-GEMM assay was performed according to Fauser and Messner (Blood, 52(6) 1243-8,1978) and Messner and Fausser (Blut 41(5) 327-33, 1980) with some variations. In brief, heparinized bone marrow cells were layered over Percoll (1.077 gm/ml) and centrifuged at 400 g at 4° C. for 10 minutes to remove neutrophils and RBCs. The fractionated BM cells at 2×10^5 cells/ml were cultured in IMDM containing 0.9% (vol/vol) methylcellulose supplemented with 30% FCS or normal human plasma, a cocktail of cytokines containing G-CSF (10 ng/ml), IL-3 (40 U/ml), MGF (50 ng/ml), Erythropoietin (2u/ml) or TPO (10 ng/ml) and 5×10^−5M μ-2-mercaptoethanol. CR4 was added to the cells in concentrations indicated in FIG. 1 and the culture mixture was plated in 1 ml volumes into 35 mm petri dishes and incubated at 37° C., 5% CO2 in a humidified atmosphere. All cultures were evaluated at 14 days for the number of BFU-E colonies (defined as aggregates of more than 500 hemaglobinized cells or, 3 or more erythroid subcolonies), CFU-C colonies (defined as granulocyte or monocyte-macrophage cells or both), and CFU-GEMM colonies (a mixed population comprising of all elements). All control samples in this and other examples were treated with the matching concentration of the solvent (DMSO) for the compounds in the same medium or in the case of Example 21, PBS, as indicated. CFU-C stimulation with CR4 dose response. Bone marrow cells were prepared as in Example 15. CR4 was added to the cells at 10 or 20 μM. The culture mixture was plated in 1 ml volumes into 35 mm petri dishes and incubated at 37° C., 5% CO2 in a humidified atmosphere. All cultures were evaluated at 14 days for the number of CFU-C colonies (defined as granulocyte or monocyte-macrophage cells or both). […] Stimulation of CFU-C colony formation by CR11. Bone marrow cells were prepared as in Example 15. CR11 was added to the cells at 10 or 20 μM. The culture mixture was plated in 1 ml volumes into 35 mm petri dishes and incubated at 37° C., 5% […] in a humidified atmosphere. All cultures were evaluated at 14 days for the number of CFU-C colonies. […] CFU-C stimulation with CR19 dose response. Bone marrow cells were prepared as in Example 15. The culture mixture was plated in 1 ml volumes into 35 mm petri dishes and incubated at 37° C., 5% CO2 in a humidified atmosphere. All cultures were evaluated at 14 days for the number of BFU-E and CFU-C colonies.

mice [2] = test: Granulocytes in the spleen of treated mice; assay type: in vivo; details: for normal splenic granulocytes: daily injection, SCI mouse model; for non-specific damage to the animal: doses required to promote myelopoiesis, one month of continual administration
mice [3] = test: Peripheral white blood cell count in mice; assay type: in vivo; details: for white blood cells in the peripheral blood: SCI mouse model, similar kinetics to G-CSF treated mice; for white blood cell counts: mice injected daily, peripheral blood after 14 and 17 days, FIG. 9
Protocol: Promotion of peripheral white blood cell count by CR11. Mice were injected daily with CR11. 250 μl of 400 μM CR11 was injected in PBS. Controls were injected with matching concentrations of CR11 solvent (DMSO) in PBS, or recombinant human G-CSF. After 14 and 17 days blood peripheral blood samples were taken and white blood cell counts determined. Results from each group were averaged.

[4] = test system: CD34+ multipotent stem cells; test: CFU-C colony formation from CD34+ selected stem cells; assay type: cell-based, human
[5] = test system: normal bone marrow mononuclear cells; test: Long-term culture-initiating cell (LTC-IC) assay on stroma after pre-incubation; assay type: cell-based, human; details: for myeloproliferation in long-term cultures: pre-incubated with 50 uM for 5 hours, FIG. 11
Excerpt: The long-term BM culture system provides the means to investigate the proliferation and differentiation properties of primitive hematopoietic cells. To assess the long-term effects of CR4 on early progenitor cells the long-term culture-initiating cell (LTC-IC) assay was set up utilizing stromal microenvironment. Briefly, to obtain stromal cells bone marrow mononuclear cells were suspended in long-term culture (LTC) media (MyeloCult Stem Cell Technologies Inc.) supplemented with 10^−6 mol/L hydrocortisone sodium succinate (HSS; Sigma Aldrich Canada Ltd., Mississauga, Ont.,Canada). Approximately 1×10^7 cells were plated into 25 cm^2 tissue culture flasks (Becton Dickinson Labware, Franklin Lakes, N.J., USA) and incubated for 3 days at […] in a humidified atmosphere with 5% CO2 followed by incubation at 33° C. Cultures were re-fed weekly by replacing half of the medium. Following stromal confluency (3-6 weeks) cells were trypsinized and irradiated (1,500 cGy) using a Cs source. Stromal cells were again replated in LTC media at a concentration of 0.5-1.0×10^6 cells per 35 mm culture dishes (Nunc-Gibco BRL, Gaithersburg, Md.). Subcultured stroma was incubated for 2-3 days (at greater than 70% confluency) prior to co-culturing with fresh non-adherent overlay of hematopoietic cells. Normal bone marrow mononuclear cells, purified by centrifugation on Percoll, at a concentration of 1×10^6 cells/ml were pre-incubated with 50 uM CR4 or the drug diluent alone for a period of 5 hours at 37° C. in media. Cells were then washed twice to remove the compound and plated at 2×10^5 cells/ml for the short-term CFU-GEMM clonogenic assay (as previously described) while the remainder of the non-adherent cells were co-cultured with normal stroma (as described above) for long-term cultures. Long-term cultures were set up with two unrelated normal bone marrow samples (NBM1 and NBM2). Half of the non-adherent mononuclear cells were removed weekly from the stromal co-cultures and plated for colony-forming cells (CFU-GM) in the CFU-GEMM assay.

normal bone marrow cells [6] = test: CFU-C colony formation after short high dose exposure (2.5-5 hours), wash-out, 14 day culture; assay type: cell-based, human
Protocol: Stimulation of CFU-C colony formation with high dose CR4 for 2.5 hours. Bone marrow cells were layered over Percoll and centrifuged at 400 g at 4° C. for 10 minutes to remove neutrophils and RBCs. The cells were resuspended at 1×10^6/ml in complete medium with or without 50 μM CR4. The cells were incubated with the compound for two and a half hours at 37° C., 5% CO2. At the end of this period the cells were thoroughly washed in medium to remove CR4 and then cultured at 2×10^5 cells/ml in IMDM containing 0.9% (vol/vol) methylcellulose supplemented with 30% FCS or normal human plasma, and a cocktail of cytokines containing G-CSF (10 ng/ml), IL-3 (40 U/ml,), MGF (50 ng/ml), Erythropoietin or TPO and 5×10^−5M μ-2-mercaptoethanol. The culture mixture was plated in 1 ml volumes into 35 mm petri dishes and incubated at 37° C., 5% CO2 in a humidified atmosphere. All cultures were evaluated at 14 days for the number of CFU-C colonies. […] Stimulation of CFU-C colony formation with high dose CR4 for 2.5 and 5 hours. Bone marrow cells were prepared and treated as in Example 19, except exposure times of 2.5 and 5 hours were evaluated. The culture mixture was plated in 1 ml volumes into 35 mm petri dishes and incubated at 37° C., 5% CO2 in a humidified atmosphere. All cultures were evaluated at 14 days for the number of CFU-GM colonies (defined as granulocyte or macrophage cells or both). […] Stimulation of CFU-C colony formation with high dose CR4—two independent bone marrow samples (A&B). Bone marrow cells were prepared and treated as in Example 19, except that CR4 concentrations of 25 and 50 μM were evaluated. The culture mixtures was plated in 1 ml volumes into 35 mm petri dishes and incubated at 37° C., 5% CO2 in a humidified atmosphere. All cultures were evaluated at 14 days for the number of CFU-C colonies.

[7] = test system: cells of the myeloid lineage; test: Promotion of myelopoiesis (general statement); details: in vitro, ex vivo and in vivo
transformed cell = test: Transformed cell growth; assay type: cell-based

Question: Which results are given for `N#C/C(=C\C=C\c1ccc(O)c(O)c1)C(=O)NCc1ccccc1` [CR4, (E,E)-2-(Benzylaminocarbonyl)-3-(3,4-dihydroxystyryl)acrylonitrile]?
Answer: CFU-C colony formation (normal bone marrow cells [1]; 10 μM, 14 days): significantly stimulated; also recorded: significantly increased; BFU-E colony formation (normal bone marrow cells [1]; 10 μM, 14 days, FIG. 1): some inhibition; CFU-C colony formation (normal bone marrow cells [1]; 20 μM, 14 days): equivalent to the control; toxicity to normal bone marrow cells (normal bone marrow cells [1]; 14 days): minimal toxicity; CFU-C colony numbers (normal bone marrow cells [1]; concentrations from about 0.6 to 10 μM, 14 days, FIG. 1): stimulated; toxicity upon normal bone marrow (normal bone marrow cells [1]; doses up to 5 μM, 14 days, FIG. 1): negligible toxicity; number of CFU-GM or CFU-C colonies (normal bone marrow cells [1]): effective in increasing; normal splenic granulocytes (mice [2]): tremendous increase; non-specific damage to the animal (mice [2]): did not result in detectable non-specific damage; granulocytes in the spleen (mice [2]; mice, one month, subcutaneous osmotic pump, theoretical 200 μg/kg/hr, FIG. 10): Increase in granulocytes; white blood cells in the peripheral blood (mice [3]): Increased numbers; formation of CFU-C colonies from CD34+ stem cells ([4]; concentrations from 2.5-7.5 μM, 14 days, FIG. 2): significantly increased; myeloproliferation with purified CD34+ and hematopoietic stem cells ([4]; short-term CFU-GEMM assay, FIG. 12): can be induced; number of CFU-GM in long-term cultures ([5]; 50 μM for 5 hours): significant increase; myeloproliferation in long-term cultures ([5]; NBM1): significant increase; myeloproliferation in long-term cultures ([5]; NBM2): significant increase; CFU-C colony formation (normal bone marrow cells [6]; 5 μM (so in the source), five hours exposure, FIG. 6): increased significantly; CFU-C colony formation (normal bone marrow cells [6]; 5 μM (so in the source), two and a half hours exposure, FIG. 6): increased significantly; CFU-C colony formation (normal bone marrow cells [6]; 25 μM, five hours exposure, bone marrow sample A, FIG. 7A): increased significantly; CFU-C colony formation (normal bone marrow cells [6]; 50 μM, five hours exposure, bone marrow sample A, FIG. 7A): increased significantly; CFU-C colony formation (normal bone marrow cells [6]; 50 μM, five hours exposure, other bone marrow sample, FIG. 7B): increased significantly; CFU-C colony formation (normal bone marrow cells [6]; 50 μM, two and a half hours exposure, FIG. 5): increased significantly; myelopoiesis when the cells are cultured (normal bone marrow cells [6]; 25-50 μM for 2-5 hours): increased myelopoiesis; other normal bone marrow cells (normal bone marrow cells [6]; same doses (25-50 μM) over the same period (2-5 hours)): relatively unaffected; promoting myelopoiesis [7]: capable of promoting myelopoiesis; transformed cell growth (transformed cell): do not promote

Question: Which promoting myelopoiesis [7] does the source give for `COc1cc(/C=C/C=C(C#N)C#N)cc(OC)c1O` [CR7, (E,E)-2-cyano-3-(3,5-dimethoxy-4-hydroxystyryl)acrylonitrile] here?
Answer: The promoting myelopoiesis was “capable of promoting myelopoiesis”.

Question: `COc1cc(/C=C/C=C(\C#N)C(=O)NCCc2ccccc2)cc(OC)c1O` [CR8, (E,E)-2-(Phenylethylamido)-3-(3,5-dimethoxy-4-hydroxystyryl)acrylonitrile] was tested. Which promoting myelopoiesis [7] did it give?
Answer: The promoting myelopoiesis was “capable of promoting myelopoiesis”.

Question: `COc1cc(/C=C/C=C(\C#N)C(=O)NCc2ccc(O)c(O)c2)cc(OC)c1O` [CR11, (E,E)-2-(3,4-Dihydroxybenzylaminocarbonyl)-3-(3,5-dimethoxy-4-hydroxystyryl)acrylonitrile] was tested. Which CFU-C colony formation (normal bone marrow cells [1]; 10 μM, 14 days) did it give?
Answer: The CFU-C colony formation was “elevated colony numbers slightly”.

Question: What about the CFU-C colony formation (normal bone marrow cells [1]; 20 μM, 14 days) of the same molecule?
Answer: The CFU-C colony formation was “significantly increased”.

Question: What about the “toxicity to normal bone marrow cells” value (normal bone marrow cells [1]; 14 days) of the same molecule?
Answer: Its value is “minimal toxicity”.

Question: And the “number of CFU-GM or CFU-C colonies” value (normal bone marrow cells [1])?
Answer: Its value is “effective in increasing”.

Question: And the normal splenic granulocytes (mice [2])?
Answer: Its normal splenic granulocytes is “tremendous increase”.

Question: And the “non-specific damage to the animal” value (mice [2])?
Answer: The value was “did not result in detectable non-specific damage”.

Question: What about the “white blood cells in the peripheral blood” value (mice [3]) of the same molecule?
Answer: Its value is “Increased numbers”.

Question: And the “white blood cell counts” value (mice [3])?
Answer: Its value is “significantly increased”.

Question: And the promoting myelopoiesis [7]?
Answer: The promoting myelopoiesis was “capable of promoting myelopoiesis”.

Question: What about the transformed cell growth (transformed cell) of the same molecule?
Answer: Its transformed cell growth is “do not promote”.

Question: Which results are given for `N#C/C(=C\C=C\c1ccccc1)C(=O)NCc1ccc(O)c(O)c1` [CR19, (E,E)-2-(3,4 Dihydroxybenzylaminocarbonyl)-3-styrylacrylonitrile]?
Answer: CFU-C colony formation (normal bone marrow cells [1]; 2.5 μM, 14 days, FIG. 8): significantly increased; number of CFU-GM or CFU-C colonies (normal bone marrow cells [1]): effective in increasing; promoting myelopoiesis [7]: capable of promoting myelopoiesis; transformed cell growth (transformed cell): do not promote

Question: `COc1cc(/C=C/C=C(\C#N)C(=O)NCc2ccccc2)ccc1O` [CR56, (E,E)-2-(benzylaminocarbonyl)-3-(3-methoxy-4-hydroxystyryl)acrylonitrile] was tested. Which promoting myelopoiesis [7] did it give?
Answer: Its promoting myelopoiesis is “capable of promoting myelopoiesis”.

B1: G-CSF: recombinant human G-CSF (Granulocyte-Colony Stimulating Factor), injected as positive control (protein, UniProt P09919 31-207, looked up)
Granulocyte …: TPLGPASSLPQSFLLKCLEQVRKIQGDGAALQEKLVSECATYKLCHPEELVLLGHSLGIPWAPLSSCPSQALQLAGCLSQLHSGLFLYQGLLQALEGISPELGPTLDTLQLDVADFATTIWQQMEELGMAPALQPTQGAMPAFASAFQRRAGGVLVASHLQSFLEVSYRVLRHLAQP
Question: Which “white blood cell counts” value (mice [3]) does the source give for B1 here?
Answer: Its value is “significantly increased”.
